Patent publication US20250296938A1, “Compounds that Interact with the Ras Superfamily for the Treatment of Cancers, Inflammatory Diseases, Rasopathies, and Fibrotic Disease” (SHY Therapeutics, LLC, priority 2018, published 2025)

The compounds below were run on MAPK phosphorylation (assay: MAPK cell-based phosphorylation assay (ELISA or Western), PANC-1). Settings: Homo sapiens, PANC-1.
Procedure, shortened: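 Serum-starved (0.5% FBS overnight) cells given compound at 10 μM or serial dilutions (0.3% DMSO) for 6 h at 37 °C, then 1.5 ng/mL EGF for 15 min. Phospho-MAPK read by fixed-cell ELISA (fluorescence, 595 nm) or by Western blot of lysates with anti-phospho-p44/42 (Thr202/Tyr204).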

| Compound | IC50 |
| --- | --- |
| COCCNc1nc(-c2nccn2C)nc2sc(-c3cccc(OC)c3Cl)c(-c3ccccc3)c12 [drawing 472] | 750 to 1000 nM |
| CO[C@H]1CCC(Nc2nc(-c3nccn3C)nc3sc(-c4ccn(C)n4)c(-c4ccccc4)c23)C1 (stereo partly drawn) [drawing 474] | 750 to 1000 nM |

Same assay, conditions: Homo sapiens; 10 μM, 6 hours, EGF stimulation, PANC-1

| Compound | inhibition at 10 µM |
| --- | --- |
| CO[C@H]1CCC(Nc2nc(-c3nccn3C)nc3sc(-c4ccn(C)n4)c(-c4ccccc4)c23)C1 (stereo partly drawn) [drawing 406] | 76 to 100% |
| CO[C@@H]1CCC(Nc2nc(-c3nccn3C)nc3sc(-c4ccn(C)n4)c(-c4ccccc4)c23)C1 (stereo partly drawn) [drawing 407] | 76 to 100% |
| COCC1CCN(c2nc(-c3nccn3C)nc3sc(-c4ccn(C)n4)c(-c4ccccc4)c23)C1 (stereo not drawn) [drawing 408] | 76 to 100% |
| COCCNc1nc(-c2nccn2C)nc2sc(-c3ccccc3Cl)c(-c3ccc(OC)cc3)c12 [drawing 418] | 76 to 100% |
| COCCNc1nc(-c2nccn2C)nc2sc(-c3cccc(OC)c3)c(-c3ccc(OC)cc3)c12 [drawing 419] | 76 to 100% |
| COCCNc1nc(-c2nccn2C)nc2sc(-c3cccc(OC)c3Cl)c(-c3ccc(OC)cc3)c12 [drawing 420] | 76 to 100% |
| COCCNc1nc(-c2cn(C)cn2)nc2sc(-c3ccccc3Cl)c(-c3ccc(OC)cc3)c12 [drawing 422] | 76 to 100% |
| COCCNc1nc(-c2nccn2C)nc2sc(-c3cccc(OC)c3Cl)c(-c3ccccc3)c12 [drawing 425] | 76 to 100% |

What follows are compounds tested on MAPK phosphorylation (assay: Western MAPK cell-based phosphorylation assay, BxPC3). Settings: Homo sapiens, BXPC-3.
Experimental: (§1) Cell lines: Human NSCLC cells NCI-H1975 and NCI-H1299, and tumor-derived pancreatic cancer cell lines Panc-1, MIA-PaCa-2, and BxPC3, were all purchased from American Type Culture Collection and grown in complete RPMI medium (BxPC3, NCI-H1975 and NCI-H1299) or DMEM-High Glucose (Panc1 and MIA-PaCa-2), supplemented with penicillin (100 U/mL), streptomycin (100 μg/mL), and 10% heat-inactivated FBS at 37° C. in a humidified incubator with 5% CO2.
(§2) Method: Cells were plated at 350000 cells/well density in a 12-well plate, allowed 3 hours to adhere to the plate, then starved in the appropriate medium in the presence of 0.5% FBS overnight. The small molecules to be tested were added to the cells in the final concentration of 10 μM in the presence of 0.3% DMSO for 6 hours incubation at 37° C. For IC50 value determination, serial dilutions of compounds were added to cells under the same conditions. Next, cells were stimulated with 1.5 ng/ml EGF for 15 minutes then cells were lysed with lysis buffer containing 1% Triton X-100, EDTA, and Halt™ Protease & Phosphatase Inhibitor Cocktail (Thermo Scientific). Protein concentration was assessed by BCA protein assay (Thermo Scientific). Phosphorylation level of MAPK was determined by western blot.
(§3) Western blot protocol: Equal amounts of protein (15-50 μg) were separated by SDS-PAGE and transferred to nitrocellulose membranes (Invitrogen by Thermo Fisher Scientific). The membrane was stained with Ponceau S Stain (Boston BioProducts) to verify uniform protein loading. Membranes were blocked with 10% milk and phosphorylation levels of MAPK were assessed by incubating overnight at 4° C. with anti-phospho-p44/42 (Thr202/Tyr204) antibody (Cell Signaling) followed by HRP-conjugated secondary antibody (Jackson Immunoresearch, West Grove, PA). Bands were incubated in Amersham ECL Prime Western Blotting Detection Reagent (GE Healthcare) and visualized using the ChemiDoc MP imaging system (Bio-Rad).

| Compound | IC50 |
| --- | --- |
| COCCNc1nc(-c2nccn2C)nc2sc(-c3cccc(OC)c3Cl)c(-c3ccccc3)c12 [drawing 472] | > 1000 nM |

Same assay, conditions: Homo sapiens, BXPC-3, 10 μM, 6 hours, EGF stimulation

| Compound | inhibition at 10 µM |
| --- | --- |
| CO[C@H]1CCC(Nc2nc(-c3nccn3C)nc3sc(-c4ccn(C)n4)c(-c4ccccc4)c23)C1 (stereo partly drawn) [drawing 406] | 76 to 100% |
| CO[C@@H]1CCC(Nc2nc(-c3nccn3C)nc3sc(-c4ccn(C)n4)c(-c4ccccc4)c23)C1 (stereo partly drawn) [drawing 407] | 0% |
| COCCNc1nc(-c2nccn2C)nc2sc(-c3ccccc3Cl)c(-c3ccc(OC)cc3)c12 [drawing 418] | 0% |
| COCCNc1nc(-c2nccn2C)nc2sc(-c3cccc(OC)c3)c(-c3ccc(OC)cc3)c12 [drawing 419] | 0% |
| COCCNc1nc(-c2nccn2C)nc2sc(-c3cccc(OC)c3Cl)c(-c3ccc(OC)cc3)c12 [drawing 420] | 1 to 25% |
| COCCNc1nc(-c2cn(C)cn2)nc2sc(-c3ccccc3Cl)c(-c3ccc(OC)cc3)c12 [drawing 422] | 26 to 50% |
| COCCNc1nc(-c2nccn2C)nc2sc(-c3cccc(OC)c3Cl)c(-c3ccccc3)c12 [drawing 425] | 76 to 100% |

These compounds were tested on MAPK phosphorylation (assay: Western MAPK cell-based phosphorylation assay, MIA PaCa-2). Settings: Homo sapiens.
Experimental: as §1, §2, §3

| Compound | IC50 |
| --- | --- |
| COCCNc1nc(-c2nccn2C)nc2sc(-c3cccc(OC)c3Cl)c(-c3ccccc3)c12 [drawing 472] | 750 to 1000 nM |
| CO[C@H]1CCC(Nc2nc(-c3nccn3C)nc3sc(-c4ccn(C)n4)c(-c4ccccc4)c23)C1 (stereo partly drawn) [drawing 474] | > 1000 nM |

Same assay, conditions: Homo sapiens, 10 μM, 6 hours, EGF stimulation

| Compound | inhibition at 10 µM |
| --- | --- |
| CO[C@H]1CCC(Nc2nc(-c3nccn3C)nc3sc(-c4ccn(C)n4)c(-c4ccccc4)c23)C1 (stereo partly drawn) [drawing 406] | 76 to 100% |
| CO[C@@H]1CCC(Nc2nc(-c3nccn3C)nc3sc(-c4ccn(C)n4)c(-c4ccccc4)c23)C1 (stereo partly drawn) [drawing 407] | 0% |
| COCCNc1nc(-c2nccn2C)nc2sc(-c3ccccc3Cl)c(-c3ccc(OC)cc3)c12 [drawing 418] | 76 to 100% |
| COCCNc1nc(-c2nccn2C)nc2sc(-c3cccc(OC)c3)c(-c3ccc(OC)cc3)c12 [drawing 419] | 76 to 100% |
| COCCNc1nc(-c2nccn2C)nc2sc(-c3cccc(OC)c3Cl)c(-c3ccc(OC)cc3)c12 [drawing 420] | 76 to 100% |
| COCCNc1nc(-c2cn(C)cn2)nc2sc(-c3ccccc3Cl)c(-c3ccc(OC)cc3)c12 [drawing 422] | 76 to 100% |
| COCCNc1nc(-c2nccn2C)nc2sc(-c3cccc(OC)c3Cl)c(-c3ccccc3)c12 [drawing 425] | 76 to 100% |

The compounds below were run on MAPK phosphorylation (assay: Western MAPK cell-based phosphorylation assay, NCI H1975). Settings: Homo sapiens.
Experimental: as §1, §2, §3

| Compound | IC50 |
| --- | --- |
| COCCNc1nc(-c2nccn2C)nc2sc(-c3cccc(OC)c3Cl)c(-c3ccccc3)c12 [drawing 472] | > 1000 nM |
| CO[C@H]1CCC(Nc2nc(-c3nccn3C)nc3sc(-c4ccn(C)n4)c(-c4ccccc4)c23)C1 (stereo partly drawn) [drawing 474] | > 1000 nM |

Same assay, conditions: Homo sapiens, 10 μM, 6 hours, EGF stimulation

| Compound | inhibition at 10 µM |
| --- | --- |
| CO[C@H]1CCC(Nc2nc(-c3nccn3C)nc3sc(-c4ccn(C)n4)c(-c4ccccc4)c23)C1 (stereo partly drawn) [drawing 406] | 76 to 100% |
| CO[C@@H]1CCC(Nc2nc(-c3nccn3C)nc3sc(-c4ccn(C)n4)c(-c4ccccc4)c23)C1 (stereo partly drawn) [drawing 407] | 26 to 50% |
| COCCNc1nc(-c2nccn2C)nc2sc(-c3ccccc3Cl)c(-c3ccc(OC)cc3)c12 [drawing 418] | 0% |
| COCCNc1nc(-c2nccn2C)nc2sc(-c3cccc(OC)c3)c(-c3ccc(OC)cc3)c12 [drawing 419] | 76 to 100% |
| COCCNc1nc(-c2nccn2C)nc2sc(-c3cccc(OC)c3Cl)c(-c3ccc(OC)cc3)c12 [drawing 420] | 76 to 100% |
| COCCNc1nc(-c2cn(C)cn2)nc2sc(-c3ccccc3Cl)c(-c3ccc(OC)cc3)c12 [drawing 422] | 76 to 100% |
| COCCNc1nc(-c2nccn2C)nc2sc(-c3cccc(OC)c3Cl)c(-c3ccccc3)c12 [drawing 425] | 76 to 100% |

The compounds below were run on MAPK phosphorylation (assay: Western MAPK cell-based phosphorylation assay, NCI H1299). Settings: Homo sapiens.
Experimental: as §1, §2, §3

| Compound | IC50 |
| --- | --- |
| COCCNc1nc(-c2nccn2C)nc2sc(-c3cccc(OC)c3Cl)c(-c3ccccc3)c12 [drawing 472] | > 1000 nM |

Same assay, conditions: Homo sapiens, 10 μM, 6 hours, EGF stimulation

| Compound | inhibition at 10 µM |
| --- | --- |
| CO[C@H]1CCC(Nc2nc(-c3nccn3C)nc3sc(-c4ccn(C)n4)c(-c4ccccc4)c23)C1 (stereo partly drawn) [drawing 406] | 76 to 100% |
| CO[C@@H]1CCC(Nc2nc(-c3nccn3C)nc3sc(-c4ccn(C)n4)c(-c4ccccc4)c23)C1 (stereo partly drawn) [drawing 407] | 26 to 50% |
| COCC1CCN(c2nc(-c3nccn3C)nc3sc(-c4ccn(C)n4)c(-c4ccccc4)c23)C1 (stereo not drawn) [drawing 408] | 26 to 50% |
| COCCNc1nc(-c2nccn2C)nc2sc(-c3ccccc3Cl)c(-c3ccc(OC)cc3)c12 [drawing 418] | 0% |
| COCCNc1nc(-c2nccn2C)nc2sc(-c3cccc(OC)c3)c(-c3ccc(OC)cc3)c12 [drawing 419] | 0% |
| COCCNc1nc(-c2nccn2C)nc2sc(-c3cccc(OC)c3Cl)c(-c3ccc(OC)cc3)c12 [drawing 420] | 0% |
| COCCNc1nc(-c2cn(C)cn2)nc2sc(-c3ccccc3Cl)c(-c3ccc(OC)cc3)c12 [drawing 422] | 0% |
| COCCNc1nc(-c2nccn2C)nc2sc(-c3cccc(OC)c3Cl)c(-c3ccccc3)c12 [drawing 425] | 76 to 100% |

Each compound was assayed on AKT phosphorylation (assay: Western AKT cell-based phosphorylation assay, PANC-1). Settings: Homo sapiens, 6 hours, EGF stimulation, PANC-1.
Procedure, shortened: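 PANC-1 cells, serum-starved overnight in 0.5% FBS, were treated with compound at 10 μM (0.3% DMSO) for 6 h at 37 °C and then stimulated with 1.5 ng/ml EGF for 15 min. Lysates (15–50 μg) were immunoblotted for phospho-Akt Ser473, with ECL detection.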

| Compound | inhibition at 10 µM |
| --- | --- |
| CO[C@H]1CCC(Nc2nc(-c3nccn3C)nc3sc(-c4ccn(C)n4)c(-c4ccccc4)c23)C1 (stereo partly drawn) [drawing 406] | 76 to 100% |
| CO[C@@H]1CCC(Nc2nc(-c3nccn3C)nc3sc(-c4ccn(C)n4)c(-c4ccccc4)c23)C1 (stereo partly drawn) [drawing 407] | 0% |
| COCC1CCN(c2nc(-c3nccn3C)nc3sc(-c4ccn(C)n4)c(-c4ccccc4)c23)C1 (stereo not drawn) [drawing 408] | 0% |
| COCCNc1nc(-c2nccn2C)nc2sc(-c3ccccc3Cl)c(-c3ccc(OC)cc3)c12 [drawing 418] | 0% |
| COCCNc1nc(-c2nccn2C)nc2sc(-c3cccc(OC)c3)c(-c3ccc(OC)cc3)c12 [drawing 419] | 0% |
| COCCNc1nc(-c2nccn2C)nc2sc(-c3cccc(OC)c3Cl)c(-c3ccc(OC)cc3)c12 [drawing 420] | 26 to 50% |
| COCCNc1nc(-c2cn(C)cn2)nc2sc(-c3ccccc3Cl)c(-c3ccc(OC)cc3)c12 [drawing 422] | 0% |
| COCCNc1nc(-c2nccn2C)nc2sc(-c3cccc(OC)c3Cl)c(-c3ccccc3)c12 [drawing 425] | 76 to 100% |

The compounds below were run on BxPC3 pancreatic cancer cell line (assay: Cell proliferation assay (DAPI)). Settings: Homo sapiens, BXPC-3.
Format: cell-based
Procedure, shortened: (§4)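 NCI-H1975 cells in RPMI; PANC-1 and MIA PaCa-2 in DMEM-high glucose; BxPC3 in RPMI; all with 10% FBS. Compounds at 10 µM final (or serial dilutions for IC50), 0.3% DMSO, 2–4 days at 37 °C. Fixed, DAPI-stained, fluorescence read at 358/461 nm to give proliferation inhibition.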

| Compound | IC50 |
| --- | --- |
| COCCCNc1nc(-c2nccn2C)nc2sc(-c3ccn(C)n3)c(-c3ccccc3)c12 [drawing 542] | 750 to 1000 nM |

The compounds below were run on MIA PaCa-2 pancreatic cancer cell line (assay: Cell proliferation assay (DAPI)). Settings: Homo sapiens, MIA PaCa-2.
Format: cell-based
Procedure, shortened: as §4

| Compound | IC50 |
| --- | --- |
| COCCCNc1nc(-c2nccn2C)nc2sc(-c3ccn(C)n3)c(-c3ccccc3)c12 [drawing 542] | > 1000 nM |

Same assay, conditions: Homo sapiens; 10 μM, 2-4 days, MIA PaCa-2; read-out: % Inhibition of cell proliferation, MIA PaCa-2 % inh

| Compound | inhibition at 10 µM |
| --- | --- |
| COCCCNc1nc(-c2nccn2C)nc2sc(-c3ccn(C)n3)c(-c3ccccc3)c12 [drawing 542] | 76 to 100% |

What follows are compounds tested on PANC-1 pancreatic cancer cell line (assay: Cell proliferation assay (DAPI)). Settings: Homo sapiens.
Format: cell-based
Procedure, shortened: as §4

| Compound | IC50 |
| --- | --- |
| COCCCNc1nc(-c2nccn2C)nc2sc(-c3ccn(C)n3)c(-c3ccccc3)c12 [drawing 542] | 750 to 1000 nM |
